Source: paper PMC7615676, “Short-course combination treatment for experimental chronic Chagas disease” (Science translational medicine, 2023)
Converted amounts (≈) assume the structure as drawn. “And” between values parts separate entries of the source, which are not always exact repeats. Equal values may be shown once. Read-outs that look alike come from different tables or passages of the source.

What was measured:
[1] = bioanalysis of blood samples from in vivo efficacy studies; design: species or system BALB/c mice; settings: for AUC0-7h Day 1, unbound concentrations of BNZ / AUC0-7h Day 5, unbound concentrations of BNZ / Cmax Day 1, unbound concentrations of BNZ / Cmax Day 5, unbound concentrations of BNZ: 30mg/kg qd; for AUC0-7h Day 1, unbound concentrations of BNZ / AUC0-7h Day 5, unbound concentrations of BNZ / Cmax Day 1, unbound concentrations of BNZ / Cmax Day 5, unbound concentrations of BNZ / AUC0-7h Day 1, unbound concentrations of 4 / AUC0-7h Day 5, unbound concentrations of 4 / Cmax Day 1, unbound concentrations of 4 / Cmax Day 5, unbound concentrations of 4: 5 days; for AUC(0-t) / Cmax: BALB/c, mouse, whole blood, po
Description: Following the first daily dose on day 1 and last day of treatment, serial blood samples were taken by the tail vein from all treated mice pre-dose, then 30 minutes, 1, 2, 4, and 8 hours post-dose, mixed with two volumes of distilled water and analyzed for test compound. Quantification of compounds was performed by means of LC/MSMS and exposure parameters namely Cmax and AUClast were estimated using Phoenix 64 (Pharsight Certara).

[2] = test system: chronic T. cruzi infection (CL Brener) in BALB/c mice; test: bioluminescent mouse model of chronic Chagas disease; type: in vivo, Trypanosoma cruzi
Description: Compound 2 was evaluated in a bioluminescent mouse model of Chagas disease designed to mimic chronic infections. This model successfully differentiates the clinically used drugs from the clinically invalidated CYP51 inhibitors ([21]). Key features of this model include immunosuppression of mice following cessation of treatment to allow detection of parasite relapses, and ex vivo bioluminescence imaging that allows tissue-specific visualization of parasites. Treatments are considered efficacious if there is no evidence of bioluminescence during in vivo (mouse) and ex vivo (organ/tissue) imaging following immunosuppression ([38]). Under these experimental conditions, compound 2 was able to prevent parasite relapse in 2 of the 6 mice treated orally twice daily for 10 days at 50 mg/kg (Table S1). Increasing the dose to 100 mg/kg or extending treatment duration to 21 days provided similar partial efficacy rates.
Experiments followed a similar protocol to that described in ([21]). All animals were female (BALB/cAnNCrlC mice, 6-8 weeks old, strain code: 028, supplier: Charles River (UK)). We have previously shown that there are no differences in the bioluminescence profiles between infected males and females ([77]). Animals were maintained under specific pathogen-free conditions in individually ventilated cages. They experienced a 12-hour light/dark cycle, with access to food and water ad libitum. Mice were randomly selected and distributed into cages on arrival day by a Named Animal Care and Welfare Officer (NACWO), at LSHTM biological service facility (BSF). For efficacy experiments animals were randomly selected from the cages and ear/tail tagged on the infection day, starting from number 1. The same mouse ID was kept until the experimental endpoint. Mice were infected by i.p injection with 1x10^3 trypomastigotes derived from SCID mouse blood ([67]). To confirm infection, mice were imaged around the peak of parasite load. […] Treatment initiated in the chronic stage of infection ranging between 90 and 127 days post-infection. Drugs were administered by oral gavage (~200 μl), and vehicle only (0.5% w/v hydroxypropylmethylcellulose with 0.4% v/v Tween 80 and 0.5% v/v benzyl alcohol) was administered to control mice. Total number of animals for each study arm is shown in the relevant figures. To detect residual infection, mice were immunosuppressed using cyclophosphamide (at 200 mg/kg) by ip injection every 4 days for a maximum of three doses. For in vivo imaging, mice were injected ip with 150 mg/kg D-luciferin in Dulbecco’s Ca^2+/Mg^2+-free PBS, then anaesthetized using 2.5% (v/v) isofluorane in oxygen. Images were obtained using an IVIS Lumina II system (Caliper Life Science) 10−20 min after D-luciferin administration. The detection threshold was established from uninfected mice. Organs/tissue samples were assessed by ex vivo imaging as described previously ([21]). The limit of detection in this system is less than 20 parasites ([29]).

[3] = kinetic aqueous solubility (CLND); type: physicochemical; settings: phosphate buffered saline, aqueous buffer, kinetic from dmso stock, pH 7.4
Description: The eluent is quantified by suitably calibrated flow injection CLND. This assay has a dynamic range between the lower detection limit of 1 and 500 μM, governed by the protocol’s 1:20 dilution into pH 7.4 phosphate buffer solution from nominal 10 mM DMSO stock.

HepG2 cells = test: general cytotoxicity assay in HepG2 cells; type: cell-based; settings: Homo sapiens, HepG2, 48 h, CellTiter-Glo
Description: This assay was previously described ([36]). Briefly, actively growing HepG2 cells were removed from a T-175 TC flask using 5 ml Eagle’s MEM (containing 10 % FBS, 1 % NEAA, 1 % penicillin/ streptomycin. Carbon source is D-glucose at 1 g/l) and dispersed in the medium by repeated pipetting. Seeding density was checked to ensure that new monolayers were not more than 50 % confluent at the time of harvesting. Cell suspension was added to 500 ml of the same medium at a final density of 1.2 x 10^5 cells/ml. This cell suspension was dispensed (25 μl, 3000 cells per well) into 384-well clear-bottom plates using a Multidrop Combi dispenser. Prior to addition of the cell suspension, the screening compounds (250 nl) were predispensed into the plates with an EchoH liquid handler. Plates were incubated for 48 h at 37°C, 5% CO2. After incubation, plates equilibrated at room temperature for 30 min before proceeding to develop the luminescent signal. The signal developer, CellTiter-Glo Reagent, was allowed to equilibrate at room temperature for 30 min and added to the plates ([…]) using a Multidrop Combi dispenser. Plates were left for 10 min at room temperature for stabilization and then read using a ViewLux.

[4] = test system: chronic T. cruzi infection (CL Brener) in BALB/c mice; test: bioluminescent mouse model of chronic Chagas disease; type: in vivo, Trypanosoma cruzi; settings: 5 days
[5] = test system: T. cruzi epimastigotes bearing mutations in cytochrome b; test: epimastigote drug sensitivity assay, cytochrome b mutant / resistant lines; type: cell-based, Trypanosoma cruzi; settings: for EC50: Trypanosoma cruzi; for fold change from WT, L197I: compound 3-resistant line (L197I); for fold change from WT, F222L: compound 5-resistant line (F222L)
Description: T. cruzi epimastigotes from the Silvio strain (MHOM/BR/78/Silvio; clone X10/7A) were grown at 28°C in RTH/FBS medium ([80]).
T. cruzi epimastigote assays carried out as described previously ([43]).
Compound-resistant cell lines were generated by subculturing clones of wild-type T. cruzi epimastigotes in the continuous presence of compound 3 or compound 5. Starting at sublethal concentrations, drug concentrations in 3 independent cultures were increased in a stepwise manner, usually by 2-fold. When parasites were able to survive and grow in compound concentrations equivalent to >30-fold their established EC50 value, they were cloned by limiting dilution in the presence of compound. Three independent clones were selected from each compound for further study.

[6] = dosing group BNZ+ 3 (50mg/kg bid)
[7] = read-out: HepG2 pEC50 (converted)
[8] = 4 10 mg/kg bid + BNZ 30mg/kg qd
[9] = 4 30 mg/kg bid + BNZ 30mg/kg qd

## O=C(Cn1ccnc1[N+](=O)[O-])NCc1ccccc1 [Benznidazole, reference compound]
[1]; dosing group BNZ alone
  AUC0-7h Day 1, unbound concentrations of BNZ: 18788 ± 3214 ng·h/mL
  AUC0-7h Day 5, unbound concentrations of BNZ: 12583 ± 1812 ng·h/mL
  Cmax Day 1, unbound concentrations of BNZ: 6928 ± 1302 ng/mL
  Cmax Day 5, unbound concentrations of BNZ: 5230 ± 1373 ng/mL
[1]; [6]
  AUC0-7h Day 1, unbound concentrations of BNZ: 15881 ± 4211 ng·h/mL
  AUC0-7h Day 5, unbound concentrations of BNZ: 11350 ± 4513 ng·h/mL
  Cmax Day 1, unbound concentrations of BNZ: 5188 ± 1385 ng/mL
  Cmax Day 5, unbound concentrations of BNZ: 3725 ± 1302 ng/mL
[2]; 100 mg/kg qd oral, 10 days
  No. cured/ no. tested: 3/3
[2]; 100 mg/kg qd oral, 20 days
  No. cured/ no. tested: 6/6
[3]
  solubility at 1 h: 77 µg/mL (≈ 296 µM)
HepG2 cells; read-out: HepG2 EC50
  EC50: > 100 µM
HepG2 cells; [7]
  EC50: > 100 µM
[4]; Fig. 3, BNZ 30 mg/kg qd, Adjusted Wald
  95% confidence interval for no-relapse: 0.01 − 0.58
[4]; Fig. 6, BNZ 30 mg/kg qd
  95% confidence interval for no-relapse: 0.06 − 0.8

## COc1cc(F)ccc1-c1c(C)[nH]c2nc(N)nc(C)c12 [Compound 2, 5-(4-Fluoro-2-methoxyphenyl)-4,6-dimethyl-7H-pyrrolo[2,3-d]pyrimidin-2-amine]
[1]; 50 mg/kg, compound 2 50mg/kg bid, 21-day study, read-out: AUC0-7h Day 1
  AUC(0-t): 5280 ± 1230 ng·h/mL
[1]; 50 mg/kg, compound 2 50mg/kg bid, 21-day study, read-out: AUC0-7h Day 21
  AUC(0-t): 8860 ± 1210 ng·h/mL
[1]; 50 mg/kg, compound 2 50mg/kg bid, 21-day study, read-out: Cmax Day 1
  Cmax: 870 ± 196 ng/mL
[1]; 50 mg/kg, compound 2 50mg/kg bid, 21-day study, read-out: Cmax Day 21
  Cmax: 1470 ± 202 ng/mL
[1]; 100 mg/kg, compound 2 100mg/kg bid (changed to qd after day 1), 10-day study, read-out: AUC0-7h Day 1
  AUC(0-t): 6270 ± 1140 ng·h/mL
[1]; 100 mg/kg, compound 2 100mg/kg bid (changed to qd after day 1), 10-day study, read-out: AUC0-7h Day 10
  AUC(0-t): 11500 ± 1950 ng·h/mL
[1]; 100 mg/kg, compound 2 100mg/kg bid (changed to qd after day 1), 10-day study, read-out: Cmax Day 1
  Cmax: 1250 ± 236 ng/mL
[1]; 100 mg/kg, compound 2 100mg/kg bid (changed to qd after day 1), 10-day study, read-out: Cmax Day 10
  Cmax: 2260 ± 315 ng/mL
[5]; read-out: EC50 F222L
  EC50: 3.62 ± 0.322 µM
[5]; read-out: EC50 L197I
  EC50: 0.117 ± 0.005 µM
[5]
  fold change from WT, L197I: 4 fold
  fold change from WT, F222L: 109 fold
[2]; 50 mg/kg bid oral, 10 days
  No. cured/ no. tested: 2 of the 6 and 2/6
[2]; 50 mg/kg bid oral, 21 days
  No. cured/ no. tested: 2/6
[2]; 100 mg/kg bid oral, 10 days (changed to once daily after day 1)
  No. cured/ no. tested: 2/4
[2]; 100 mg/kg bid, after first day of treatment
  toxicity in infected mice: two mice were culled due to toxicity
[3]
  solubility at 1 h: 117 µg/mL (≈ 409 µM)
HepG2 cells; read-out: HepG2 EC50
  EC50: 79 µM
HepG2 cells; [7]
  EC50: 63.1 µM

## COc1ccc(-c2c(C)[nH]c3nc(N)nc(C)c23)c(OC)c1 [Compound 4, 5-(2,4-Dimethoxyphenyl)-4,6-dimethyl-7H-pyrrolo[2,3-d]pyrimidin-2-amine]
[1]; [8]
  AUC0-7h Day 1, unbound concentrations of 4: 2419 ± 453 ng·h/mL
  AUC0-7h Day 5, unbound concentrations of 4: 1488 ± 292 ng·h/mL
  Cmax Day 1, unbound concentrations of 4: 496 ± 82 ng/mL
  Cmax Day 5, unbound concentrations of 4: 650 ± 203 ng/mL
[1]; [9]
  AUC0-7h Day 1, unbound concentrations of 4: 10441 ± 1994 ng·h/mL
  AUC0-7h Day 5, unbound concentrations of 4: 6773 ± 311 ng·h/mL
  Cmax Day 1, unbound concentrations of 4: 1931 ± 261 ng/mL
  Cmax Day 5, unbound concentrations of 4: 1577 ± 161 ng/mL
[1]; 4 50mg/kg bid alone
  AUC0-7h Day 1, unbound concentrations of 4: 16176 ± 776 ng·h/mL
  AUC0-7h Day 5, unbound concentrations of 4: 17378 ± 1605 ng·h/mL
  Cmax Day 1, unbound concentrations of 4: 2934 ± 294 ng/mL
  Cmax Day 5, unbound concentrations of 4: 3736 ± 628 ng/mL
[5]; read-out: EC50 F222L
  EC50: 6.38 ± 0.436 µM
[5]; read-out: EC50 L197I
  EC50: 0.432 ± 0.015 µM
[5]
  fold change from WT, L197I: 5 fold
  fold change from WT, F222L: 73 fold
[3]
  solubility at 1 h: 137 µg/mL (≈ 459 µM)
HepG2 cells; read-out: HepG2 EC50
  EC50: 79 µM
HepG2 cells; [7]
  EC50: 79.4 µM
[4]; Fig. 6, compound 4 50 mg/kg bid
  95% confidence interval for no-relapse: 0.01 − 0.58
